Assay results: patent US8580843B2, “Use of diindolylmethane (DIM) compounds and derivatives as neuroprotective agents” (Colorado State University Research Foundation, priority 2008, dated 2013)

What was measured:
Format in all cases: cell-based, mouse
[1] = test system: primary striatal neurons co-cultured with activated astrocytes; assay: Astrocyte-neuron co-culture: apoptosis of primary striatal neurons (caspase activity, Annexin V binding); conditions: for Apoptosis in co-cultured striatal neurons (caspase activity and Annexin V-binding): astrocytes co-treated with 10 μM for 8 hours, six hours of co-culture, FIG. 6 C-D
Protocol: Astrocyte Neuron Co-Culture. Cells were isolated as described above and astrocytes grown to confluence on permeable cell culture inserts (BD Biosciences, San Jose, Calif.) prior to treatment. Astrocytes were then treated with MPTP (10 μM), TNF-α (10 pg/ml) and IFN-γ (1 ng/ml) in the presence or absence of DIM-C-pPhtBu (10 μM), Rosiglitazone (10 μM) AMT (25 nM), or DMSO vehicle control for 8 hours. Media was then removed, and the astrocytes washed three times with sterile PBS to prevent carryover of treatment medium to the neurons, and the inserts were placed directly in each well over cultured neurons. Astrocyte-containing inserts were removed following six hours of co-culture, and neuronal caspase activity and phosphatidylserine translocation were measured by widefield fluorescence microscopy using the general cell permeable fluorescent caspase substrate rhodamine 110, bis-(L-aspartic acid amide) and an Annexin V Alexa Fluor 680 conjugate, respectively. Images were acquired using a Zeiss 20× air PlanApochromat objective and at least 10 microscopic fields were examined per treatment group over three independent experiments.
The efficacy of DIM-C-pPhtBu in preventing astrocyte-dependent neuronal apoptosis was examined in FIG. 6. Astrocytes were grown to confluence in cell culture inserts that are permeable to small molecules but prevent direct cell-cell contact. Following treatment of astrocytes with MPTP and TNF-α/IFN-γ in the presence or absence of DIM-C-pPhtBu (10 μM), rosiglitazone (10 μM), the NOS2 inhibitor AMT (25 nM), or DMSO, astrocytes were washed with PBS and co-incubated directly above primary striatal neurons in neurobasal medium. Indices of neuronal apoptosis were then measured using live-cell fluorescence imaging of caspase activity (FIG. 6A) and Annexin V binding (FIG. 6B). […] The DMSO vehicle control had no suppressive effect.
Differing letters denote statistical significance (p<0.05).

Nos2 mRNA = assay: Semi-quantitative real-time RT-PCR of Nos2 mRNA in primary astrocytes challenged with MPTP and TNF-α/IFN-γ
Excerpt: Primary Cell Isolation. Cortical astrocytes were isolated from day-1 old C57B1/6 or transgenic mouse pups according to procedures described previously (Aschner and Kimelberg, 1991), and purity confirmed through immunofluorescent staining using antibodies against GFAP and Iba1. Briefly, pups were euthanized by decapitation under isofluorane anesthesia and cortices (astrocytes) or striatum (neurons) rapidly dissected out, and meninges removed. Tissue was subject to digestion with Dispase (1.5 U/ml), and selection of astrocytes was performed by complete media change 24 hrs after plating to remove non-astroglial cell types by serum shock. This method routinely results in cultures that are approximately 99% pure astrocytes, with less than 1% contaminating microglial cells (Supplementary FIG. 1). Astrocyte cultures were maintained at 37° C. and 5% CO2 in minimum essential media supplemented with 10% heat-inactivated fetal bovine serum and a penicillin (0.001 mg/ml), streptomycin (0.002 mg/ml), and neomycin (0.001) antibiotic cocktail. Cell media was changed 24 hrs prior to all treatments. Primary neuronal cultures were seeded onto poly-L-lysine-coated 30 mm glass coverslips at 4×10^5 cells per well, and maintained in neurobasal media supplemented with 2 mM L-glutamine, a B27 supplement, and a penicillin (0.001 mg/ml), streptomycin (0.002 mg/ml), and neomycin (0.001) antibiotic cocktail. Neuronal culture media was changed 24 hours after isolation and every two days afterward, and culture purity confirmed through cell morphology and immunostaining against GAD65/67 (Supplementary FIG. 2). Neurons were used within two weeks of plating. All animal procedures were approved by the Colorado State University Institutional Animal Care and Use Committee, and were conducted in accordance with published NIH guidelines.
RT and Real-Time RT-PCR. […] RNA was isolated using the RNEasy Mini kit (Qiagen, Valencia, Calif.), and purity and concentration were determined using a Nanodrop ND 1000 spectrophotometer (NanoDrop Technologies, Wilmington, Del.). Following purification, 1 ug of RNA was used as template for reverse transcriptase (RT) reactions using the iScript RT kit (BioRad, Hercules Calif.). The resulting cDNA was immediately profiled for Nos2 gene expression (forward: 5′-TCACGCTTGGGTCTTGTT-3′ (SEQ ID NO:1); reverse: 5′-[…] -3′3′ (SEQ ID NO:2)) using β-Actin as a housekeeping gene (forward: 5′-[…]-3′3′ (SEQ ID NO:3); reverse: 5′-CGCTCGTTGCCAATACTG-3′3′ (SEQ ID NO:4)) according to the 2^−ΔΔCT method (Livak and Schmittgen, 2001).

[2] = test system: 3-nitrotyrosine protein nitration in astrocytes; assay: Immunofluorescence of 3-nitrotyrosine adducts (protein nitration) in primary astrocytes treated with MPTP and cytokines
Protocol: Immunofluorescence. Primary astrocytes were grown to confluence on 20 mm serum-coated glass coverslips and treated with saline or MPTP (10 μM), TNF-α (10 pg/ml), and IFN-γ (1 ng/ml) with or without DIM-C-pPhtBu (10 μM), rosiglitazone (10 μM), the NOS2 inhibitor AMT (25 nM) or NOS 1 inhibitor 7-NI (10 μM), or a DMSO vehicle control 8 hours prior to analysis. Immunofluorescence to confirm culture purity was conducted on cells grown to confluence on the 20 mm glass coverslips. Blocking and antibody hybridization was conducted in 1% BSA (w/v) in PBS, and all washes were conducted in PBS. Images were acquired using a Zeiss 20× air PlanApochromat objective and 6-8 microscopic fields were examined per treatment group over no less than three independent experiments. Fluorescent secondary antibodies were used to detect GFAP (488 nmcx/519 nmcm) and Iba1 or nitrosylated protein (647 nmcx/668 nmcm), respectively, while mounting medium containing DAPI (360 nmcx/460 nmcm) was used to identify cell nuclei.
The effect of NOS2 induction by MPTP and inflammatory cytokines on global protein nitration following NO/peroxynitrite (ONOO—) formation in astrocytes was examined by immunofluorescence (FIG. 3). Immunofluorescence using antibodies against GFAP (FITC) and 3-nitrotyrosine adducts (Cy5) was employed to measure the extent of protein nitration within astrocytes treated with MPTP and cytokines, with or without inclusion of DIM-C-pPhtBu (10 μM), rosiglitazone (10 μM), the high-affinity NOS2 inhibitor AMT (25 nM), the NOSI inhibitor 7-NI (10 μM) or a DMSO vehicle control. […] Co-treatment of astroytes with DIM-C-pPhtBu prevented MPTP-induced increases in nitration, resulting in similar levels of 3-nitrotyrosine adducts as saline-treated control cells (FIG. 3C). Mean intracellular fluorescence for 3-nitrotyrosine was quantified and compared between each treatment group (FIG. 3D).

[3] = astrocytes + MPTP, TNF-α, IFN-γ, FIG. 7(B), concentration not given
[4] = 10 μM, astrocytes + MPTP, TNF-α/IFN-γ, FIG. 2B

Row | Structure (SMILES) | Annexin V binding in neurons increased by MPTP and cytokine treatment ([1]; 1 uM on astrocytes for 24 hrs, then 6 hrs with primary striatal neurons, FIG. 10(A)) | Activation of astrocytes and subsequent neuronal apoptosis (quantitative Annexin V fluorescence) ([1]; 1 uM on astrocytes for 24 hrs, then 6 hrs with primary striatal neurons, FIG. 10(B)) | Suppression of Nos2 mRNA (Nos2 mRNA; [3]) | Suppression of Nos2 mRNA, dose response (Nos2 mRNA; concentrations ranging from 0.1 to 3 μM, astrocytes + MPTP, TNF-α, IFN-γ, FIG. 7(A)) | Protein nitration in primary astrocytes induced by MPTP and TNF-α/IFN-γ ([2]; FIG. 7(D), concentration not given) | Apoptosis in co-cultured striatal neurons (caspase activity and Annexin V-binding) [1] | Suppression of Nos2 mRNA (Nos2 mRNA; [4]) | Lowest dose that suppressed Nos2 induction to levels statistically indistinguishable from saline-treated control astrocytes (Nos2 mRNA; primary astrocytes, MPTP + TNF-α/IFN-γ) [µM] | Suppression of MPTP and TNF-α/IFN-γ induced Nos2 mRNA expression, dose response (Nos2 mRNA; primary astrocytes, concentrations ranging from 1 to 100 μM, FIG. 2A) | MPTP-induced increase in 3-nitrotyrosine formation ([2]; 10 μM co-treatment, astrocytes, FIG. 3D)
1 | COc1ccc(C(c2c[nH]c3ccccc23)c2c[nH]c3ccccc23)cc1 [DIM-C-pPhOCH3, 1,1-bis(3′-indolyl)-1-(p-methoxyphenyl)methane] | inhibited | significantly reduced | equivalent suppression of Nos2 mRNA | dose-responsive suppression | prevents protein nitration |  |  |  |  | 
2 | CC(C)(C)c1ccc(C(c2c[nH]c3ccccc23)c2c[nH]c3ccccc23)cc1 [DIM-C-pPhtBu, 1,1-bis(3′-indolyl)-1-(p-t-butylphenyl)methane] |  |  |  |  |  | prevented | equivalent suppression of Nos2 to levels observed in saline-treated control astrocytes | 10 | dose-dependently suppressed | prevented
3 | CN(CCOc1ccc(CC2SC(=O)NC2=O)cc1)c1ccccn1 (stereo not shown) [rosiglitazone, 5-((4-(2-(methyl-2-pyridinylamino)ethoxy)phenyl)methyl)-2,4-thiazolidinedione, reference compound] |  |  | equivalent suppression of Nos2 mRNA |  |  | prevented | equivalent suppression of Nos2 to levels observed in saline-treated control astrocytes |  |  | 
